In patent publication US20250002507A1, “7,8-DIHYDRO-5H-1,6-NAPHTHYRIDINE DERIVATIVES AS POSITIVE ALLOSTERIC MODULATORS OF THE MUSCARINIC ACETYLCHOLINE RECEPTOR M4 FOR TREATING NEUROLOGICAL AND PSYCHIATRIC DISORDERS” (Vanderbilt University, priority 2021, published 2025) one finds Emax and EC50 data, which are given here for 24 molecules.

Like-named read-outs stand apart in the source and are kept apart here.

The test concerns the target T1, Human M4 (Homo sapiens, UniProt P08173).
T1 construct: expressed in transfected cells
T1 sequence (P08173 1-479): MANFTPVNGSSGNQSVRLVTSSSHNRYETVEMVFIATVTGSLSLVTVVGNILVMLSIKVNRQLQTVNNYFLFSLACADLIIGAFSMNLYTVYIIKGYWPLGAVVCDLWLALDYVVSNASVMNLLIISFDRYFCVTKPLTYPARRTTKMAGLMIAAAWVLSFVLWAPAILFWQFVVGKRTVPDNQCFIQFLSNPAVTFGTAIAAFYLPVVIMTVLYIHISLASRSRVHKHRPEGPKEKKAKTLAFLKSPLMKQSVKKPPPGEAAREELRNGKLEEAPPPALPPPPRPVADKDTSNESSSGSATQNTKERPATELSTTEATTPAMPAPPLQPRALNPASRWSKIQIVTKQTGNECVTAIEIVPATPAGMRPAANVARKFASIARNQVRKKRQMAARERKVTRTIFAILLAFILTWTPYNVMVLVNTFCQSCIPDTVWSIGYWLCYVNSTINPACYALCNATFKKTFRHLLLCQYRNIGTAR
In words: mAChR M4 cell-based functional assay (calcium flux, potentiation of EC20 acetylcholine response), hM4-Gqi5 CHO-K1 cells. To be noted: for Emax at 30 µM: CHO-K1, Human M4, % ACh maximum at 30 μM, read-out: Emax (% ACh maximum at 30 μM); for EC50: potentiation of EC20 acetylcholine response, calcium flux, CHO-K1 cells, read-out: Human M4 EC50. Summed up: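 Positive allosteric modulation was scored as a concentration-dependent rise in the response to an EC20 dose of acetylcholine, added 144 s after the compound. Human M4-Gqi5 CHO-K1 cells carried Fluo-4 dye, and compounds ran as 11-point, 3-fold dilution series. EC50 and Emax came from four-parameter logistic fits of the FDSS fluorescence-ratio traces.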

In general, Emax refers to the size of the effect at its maximum, as opposed to the concentration needed. In general, EC50 refers to the concentration at which the effect is half-maximal.

As to `Cc1ccc(Oc2cnc3c(c2)CN(c2nn4c(C(F)(F)F)nnc4c(C)c2C)CC3)c(F)c1` [Compound 291, 6-(7,8-dimethyl-3-(trifluoromethyl)-[1,2,4]triazolo[4,3-b]pyridazin-6-yl)-3-(2-fluoro-4-methylphenoxy)-5,6,7,8-tetrahydro-1,6-naphthyridine], for the setting “Table 3”, the Emax at 30 µM was 67% and the EC50 is 1880 nM.

As for `COC1CCCN(c2cnc3c(c2)CN(c2nn4c(C(F)(F)F)nnc4c(C)c2C)CC3)C1` (stereo not drawn) [Compound 292, 6-(7,8-dimethyl-3-(trifluoromethyl)-[1,2,4]triazolo[4,3-b]pyridazin-6-yl)-3-(3-methoxypiperidin-1-yl)-5,6,7,8-tetrahydro-1,6-naphthyridine], for the setting “Table 3”, the Emax at 30 µM was 106% and the EC50 came out at 556 nM.

In the case of `Cc1cc2nncn2nc1N1CCc2ncc(Oc3ccc(F)cc3F)cc2C1` [Compound 293, 3-(2,4-difluorophenoxy)-6-(7-methyl-[1,2,4]triazolo[4,3-b]pyridazin-6-yl)-5,6,7,8-tetrahydro-1,6-naphthyridine], for the setting “Table 3”, the Emax at 30 µM was found to be 96% and the EC50 stood at 155 nM.

As for `Cc1cc2nncn2nc1N1CCc2ncc(Oc3cccc(F)c3F)cc2C1` [Compound 294, 3-(2,3-difluorophenoxy)-6-(7-methyl-[1,2,4]triazolo[4,3-b]pyridazin-6-yl)-5,6,7,8-tetrahydro-1,6-naphthyridine], where the note is “Table 3”, the Emax at 30 µM is 103% and the EC50 was 101 nM.

On to `Cc1cc2nncn2nc1N1CCc2ncc(Oc3cc(F)ccc3F)cc2C1` [Compound 295, 3-(2,5-difluorophenoxy)-6-(7-methyl-[1,2,4]triazolo[4,3-b]pyridazin-6-yl)-5,6,7,8-tetrahydro-1,6-naphthyridine], for which, where the note is “Table 3”, the Emax at 30 µM was determined as 109% and the EC50 is 41 nM.

In the case of `Cc1cc2nnc(C(F)(F)F)n2nc1N1CCc2ncc(Oc3ccc(F)cc3F)cc2C1` [Compound 296, 3-(2,4-difluorophenoxy)-6-(7-methyl-3-(trifluoromethyl)-[1,2,4]triazolo[4,3-b]pyridazin-6-yl)-5,6,7,8-tetrahydro-1,6-naphthyridine], for the setting “Table 3”, the Emax at 30 µM came out at 96% and the EC50 came out at 1120 nM.

As for `Cc1cc2nnc(C(F)(F)F)n2nc1N1CCc2ncc(Oc3cccc(F)c3F)cc2C1` [Compound 297, 3-(2,3-difluorophenoxy)-6-(7-methyl-3-(trifluoromethyl)-[1,2,4]triazolo[4,3-b]pyridazin-6-yl)-5,6,7,8-tetrahydro-1,6-naphthyridine], where the note is “Table 3”, the Emax at 30 µM stood at 100% and the EC50 is 1100 nM.

Regarding `Cc1cc2nnc(C(F)(F)F)n2nc1N1CCc2ncc(Oc3cc(F)ccc3F)cc2C1` [Compound 298, 3-(2,5-difluorophenoxy)-6-(7-methyl-3-(trifluoromethyl)-[1,2,4]triazolo[4,3-b]pyridazin-6-yl)-5,6,7,8-tetrahydro-1,6-naphthyridine], under “Table 3”, the Emax at 30 µM came out at 109% and the EC50 stood at 379 nM.

`Cc1c(N2CCc3ncc(Oc4ccc(F)cc4F)cc3C2)nn2c(C(F)(F)F)nnc2c1C` [Compound 299, 3-(2,4-difluorophenoxy)-6-(7,8-dimethyl-3-(trifluoromethyl)-[1,2,4]triazolo[4,3-b]pyridazin-6-yl)-5,6,7,8-tetrahydro-1,6-naphthyridine]: for the setting “Table 3”, the Emax at 30 µM was found to be 111% and the EC50 came to 216 nM.

On to `Cc1c(N2CCc3ncc(Oc4cccc(F)c4F)cc3C2)nn2c(C(F)(F)F)nnc2c1C` [Compound 300, 3-(2,3-difluorophenoxy)-6-(7,8-dimethyl-3-(trifluoromethyl)-[1,2,4]triazolo[4,3-b]pyridazin-6-yl)-5,6,7,8-tetrahydro-1,6-naphthyridine], for which, for the setting “Table 3”, the Emax at 30 µM was determined as 87% and the concentration giving a half-maximal response (EC50) is 969 nM.

On to `Cc1c(N2CCc3ncc(Oc4cc(F)ccc4F)cc3C2)nn2c(C(F)(F)F)nnc2c1C` [Compound 301, 3-(2,5-difluorophenoxy)-6-(7,8-dimethyl-3-(trifluoromethyl)-[1,2,4]triazolo[4,3-b]pyridazin-6-yl)-5,6,7,8-tetrahydro-1,6-naphthyridine], for which, where the note is “Table 3”, the Emax at 30 µM was 85% and the EC50 came to 820 nM.

As to `Cc1c(N2CCc3ncc(Oc4ccc(F)cc4F)cc3C2)nn2cnnc2c1C` [Compound 302, 3-(2,4-difluorophenoxy)-6-(7,8-dimethyl-[1,2,4]triazolo[4,3-b]pyridazin-6-yl)-5,6,7,8-tetrahydro-1,6-naphthyridine], for the setting “Table 3”, the Emax at 30 µM was 93% and the EC50 came to 177 nM.

Consider `Cc1c(N2CCc3ncc(Oc4cc(F)ccc4F)cc3C2)nn2cnnc2c1C` [Compound 303, 3-(2,5-difluorophenoxy)-6-(7,8-dimethyl-[1,2,4]triazolo[4,3-b]pyridazin-6-yl)-5,6,7,8-tetrahydro-1,6-naphthyridine], for which, under “Table 3”, the Emax at 30 µM stood at 96% and the EC50 turned out to be 86 nM.

On to `Cc1c(N2CCc3ncc(Oc4cccc(F)c4F)cc3C2)nn2cnnc2c1C` [Compound 304, 3-(2,3-difluorophenoxy)-6-(7,8-dimethyl-[1,2,4]triazolo[4,3-b]pyridazin-6-yl)-5,6,7,8-tetrahydro-1,6-naphthyridine], for which, where the note is “Table 4”, the Emax at 30 µM is 93% and the concentration for a half-maximal effect (EC50) came out at 348 nM.

On to `Cc1c(N2CCc3ncc(OCC(F)(F)F)cc3C2)nn2cnnc2c1C` [Compound 305, 6-(7,8-dimethyl-[1,2,4]triazolo[4,3-b]pyridazin-6-yl)-3-(2,2,2-trifluoroethoxy)-5,6,7,8-tetrahydro-1,6-naphthyridine], for which, for the setting “Table 4”, the Emax at 30 µM was 112% and the EC50 turned out to be 1870 nM.

Take `Cc1c(N2CCc3ncc(N4CC(C)Cn5nccc54)cc3C2)nn2c(C(F)(F)F)nnc2c1C` (stereo not drawn) [Compound 306, 6-(7,8-dimethyl-3-(trifluoromethyl)-[1,2,4]triazolo[4,3-b]pyridazin-6-yl)-3-(6-methyl-6,7-dihydropyrazolo[1,5-a]pyrimidin-4(5H)-yl)-5,6,7,8-tetrahydro-1,6-naphthyridine]: where the note is “Table 4”, the Emax at 30 µM is 102% and the EC50 was found to be 143 nM.

As for `Cc1c(N2Cc3cc(C(F)(F)F)cnc3CC2C)nn2cnnc2c1C` (stereo not drawn) [Compound 307, 6-(7,8-Dimethyl-[1,2,4]triazolo[4,3-b]pyridazin-6-yl)-7-methyl-3-(trifluoromethyl)-5,6,7,8-tetrahydro-1,6-naphthyridine], for the setting “Table 4”, the Emax at 30 µM is 96% and the EC50 amounted to 299 nM.

Take `Cc1c(N2CCc3ncc(Cc4ccccc4F)cc3C2)nn2cnnc2c1C` [Compound 308, 6-(7,8-dimethyl-[1,2,4]triazolo[4,3-b]pyridazin-6-yl)-3-(2-fluorobenzyl)-5,6,7,8-tetrahydro-1,6-naphthyridine]: where the note is “Table 4”, the Emax at 30 µM was 91% and the EC50 amounted to 110 nM.

As for `Cc1c(N2CCc3ncc(Cc4ccccc4F)cc3C2)nn2c(C(F)(F)F)nnc2c1C` [Compound 309, 6-(7,8-dimethyl-3-(trifluoromethyl)-[1,2,4]triazolo[4,3-b]pyridazin-6-yl)-3-(2-fluorobenzyl)-5,6,7,8-tetrahydro-1,6-naphthyridine], where the note is “Table 4”, the Emax at 30 µM was determined as 83% and the EC50 worked out at 1410 nM.

Regarding `Cc1ccc(Oc2cnc3c(c2)CN(c2nn4cnnc4cc2C)CC3)c(F)c1` [Compound 310, 3-(2-fluoro-4-methylphenoxy)-6-(7-methyl-[1,2,4]triazolo[4,3-b]pyridazin-6-yl)-5,6,7,8-tetrahydro-1,6-naphthyridine], for the setting “Table 4”, the Emax at 30 µM turned out to be 81% and the EC50 stood at 182 nM.

Consider `Cc1c(N2CCc3ncc(Cc4cccc(F)c4)cc3C2)nn2cnnc2c1C` [Compound 311, 6-(7,8-dimethyl-[1,2,4]triazolo[4,3-b]pyridazin-6-yl)-3-(3-fluorobenzyl)-5,6,7,8-tetrahydro-1,6-naphthyridine], for which, under “Table 4”, the Emax at 30 µM was 81% and the concentration for a half-maximal effect (EC50) amounted to 246 nM.

For the molecule `Cc1c(N2CCc3ncc(Cc4cccc(F)c4)cc3C2)nn2c(C(F)(F)F)nnc2c1C` [Compound 312, 6-(7,8-dimethyl-3-(trifluoromethyl)-[1,2,4]triazolo[4,3-b]pyridazin-6-yl)-3-(3-fluorobenzyl)-5,6,7,8-tetrahydro-1,6-naphthyridine], for the setting “Table 4”, the Emax at 30 µM was 60% and the EC50 came to 1800 nM.

Consider `Cc1c(N2CCc3ncc(N4CCO[C@H](C)C4)cc3C2)nn2c(C(F)(F)F)nnc2c1C` [Compound 313, (R)-4-(6-(7,8-dimethyl-3-(trifluoromethyl)-[1,2,4]triazolo[4,3-b]pyridazin-6-yl)-5,6,7,8-tetrahydro-1,6-naphthyridin-3-yl)-2-methylmorpholine], for which, where the note is “Table 4”, the Emax at 30 µM is 82% and the EC50 was 296 nM.

Take `Cc1c(N2CCc3ncc(N4CCOC[C@H]4C)cc3C2)nn2c(C(F)(F)F)nnc2c1C` [Compound 314, (R)-4-(6-(7,8-dimethyl-3-(trifluoromethyl)-[1,2,4]triazolo[4,3-b]pyridazin-6-yl)-5,6,7,8-tetrahydro-1,6-naphthyridin-3-yl)-3-methylmorpholine]: where the note is “Table 4”, the Emax at 30 µM was 98% and the EC50 is 321 nM.
